# Reference: US11638427B2, “Methods and compositions for altering secondary metabolites in plants” (Impello Biosciences, Inc, priority 2020, dated 2023)
# Key:
# [1] = tested on: high-CBD hemp varieties Stormy Daniels and BaOX; experiment: Field foliar applications of MDJ, MeJA and CJ on high-CBD hemp, cannabinoid analysis; assay type: in vivo, Cannabis spp.; conditions: 7.5 mM foliar, four applications every 14 days in flowering
# Method: However, MDJ is not known to have any significant bioactivity in planta and is not an endogenously produced phytohormone in cannabis, so it was unknown whether MDJ would afford the same functionality as MeJA. Similarly, CJ has likewise been relatively under-investigated as a plant elicitor despite being a decarboxylation product of Jasmonic Acid. Here, the effect of MDJ and CJ were analyzed (in addition to MeJA) in order to determine any difference in the effect of these treatments on field-grown high-CBD hemp varieties.
# A hemp field experiment was conducted during the flowering phase of plant development in a private research field located in North Carolina. Sixty (60) plants from two distinct plant variety populations, Stormy Daniels and BaOX were selected for the trial. Each group of 60 plants was randomly divided into three groups of 20 plants and labeled accordingly to indicate the treatment group (T1, T2, T3). All plants were cultivated identically and subjected to approximately the same environmental conditions. Control, untreated plants were taken from the same field. Plants were treated according to treatment group, and each treatment group was subjected to four (4) applications of its respective treatment, with the first treatments applied on what was considered to be the first day of the flowering phase and repeated then again every successive 14 days up until just prior to harvest. Treatments were as follows: Control group=Control, Treatment 1=MDJ, Treatment 2=MeJA, Treatment 3=CJ.
# All treatments were prepared in a stock (concentrated, non-aqueous) form by Impello Biosciences in their lab in Loveland, Colo. and labelled respectively prior to the start of the experiment. All treatments were prepared at a high stock concentration that allowed dilution by the applicator with 2 liters of water to a final 7.5 mM concentration of active ingredient (i.e., MeJA, MDJ, or CJ) for each treatment; 15-mL centrifuge tubes were used as preparation and storage vessels for each of the treatments. Preparation of the stock solutions ensured that the applicator could store the solutions prior to use at 4° C. to minimize degradation and allow for dilution immediately prior to use. In the stock containers, 2 mL of TWEEN®-20 was added to each respective elicitor compound as an emulsifier in order to reach a final oil-in-water emulsion once diluted with a concentration of 7.5 mM active ingredient and 0.1% surfactant (i.e., TWEEN®-20) v/v.
# Plants were grown to maturity and 5 plants from each treatment and control group were sampled on Sep. 23, 2019. Care was taken to ensure samples were similar in appearance and spatial location between plants to minimize unintended variance in sample quality. The apical cola for each plant was harvested, and specifically, the top 3″ of the main cola. Yield data was not collected in this study, but no obvious differences in plant size or appearance were noted. Samples were submitted for chemical analysis (Avazyme, Inc, NC).
# All models were linear models fit with Group (treatment) as the independent variable and the response variable was the corresponding compound. Data was filtered and comparison between treatments were conducted using the emmeans package and Tukey HSD for post-hoc corrections. Statistical significance was defined by a level of significance of p<0.05 in the Tukey test. Total cannabinoids included CBN, Δ9-THC, CBDV, CBG, CBD, CBC, CBDA, CBGA, THCA, and THCV. Total THC and total CBD were calculated by accounting for the additional weight of the carboxyl group in the acidic forms and adding those to the neutral/non-acidic forms.
# [2] = tested on: marijuana variety Lemon Creamsicle; experiment: Foliar spray of CJ or MDJ on high-THC marijuana in greenhouse, cannabinoid analysis; assay type: in vivo, Cannabis spp.; conditions: 7.5 mM foliar spray every 14 days, four treatments
# Method: Applicant's previous experiments investigated the effects of jasmonate-type elicitors MeJA, MDJ, and CJ on hemp (high fiber) and high-CBD, (low-THC) varieties of Cannabis. […] Here, the effects of MDJ and CJ application on a high-THC variety in a controlled environment was investigated. High-THC, low-CBD marijuana variety “Lemon Creamsicle” (LC), was grown in a greenhouse setting. LC was used as a plant model due to its historically consistent metabolite profile in the greenhouse environment, making it a stable, known, and reliable variety.
# A four-block plant trial was implemented with a population of N=12 plants and treatment group sizes of n=4. The treatment and control groups were defined as follows: Control=water+0.1% TWEEN®-20 aqueous foliar spray, Treatment 1=[7.5 mM] CJ+0.1% TWEEN®-20 aqueous foliar spray, Treatment 2=[7.5 mM] MDJ+0.1% TWEEN®-20 aqueous foliar spray. A standardized concentration of [7.5 mM] for both CJ and MDJ applications was chosen due to its performance in Applicant's past research. All treatment solutions were prepared the day of the application in equal volumes from pre-measured quantities of the stock materials to ensure consistency, i.e., appropriate volumes of CJ or MDJ were combined with appropriate volumes of TWEEN®-20 for each experimental treatment, stored in a sealed centrifuge tube, and diluted in the appropriate amount of water immediately prior to application. Separate sprayers were used for each treatment and control sprays to avoid cross-contamination.
# All plants in the trial were produced as asexual clone stock taken from the same mother plant at the same time to ensure homogeneity. All plants were rooted and grown in accordance with the production practices typical to this greenhouse operator prior to plant selection for the experiment. Due to the layout of the cultivation system, which features immovable hydroponic “pots” that house the plant throughout the entire flowering (i.e., reproductive) phase, all plants included in the experiment were selected from a set section of the greenhouse after final transplant into the hydroponic system and grouped in a complete randomized block design accordingly.
# After defining the plants to include in the experiment, which were organized in two (2) rows of six (6) plants side-by-side in the hydroponic system, the experimental blocks were defined as groups of three plants, and a research randomizer tool (randomizer.org) was used to generate a randomized arrangement of plants in each group. Using a blocked design in this setting helped account for the immovable nature of the plants and the slight, if any, environmental differences (like natural sunlight, shading from other plants, and corner/edge effect) that existed in the small experimental area. Blocking the experimental arrangement also allowed for improved statistical analysis and resolution considering the small sample size and close proximity of the experimental plants.
# After labelling each plant in the experiment with the appropriate group label (Control, T1 [CJ], or T2 [MDJ]), the plants were allowed to grow normally between treatment applications, which were performed every 14 days for a total of four (4) treatments throughout the flowering cycle, which lasted approximately eight (8) weeks. The first treatment occurred seven (7) days after the onset of the flowering cycle, which was dictated by day-length control. Care was taken with each treatment application to minimize overspray onto non-target neighboring plants, and physical barriers were temporarily installed between plants during treatment sprays to aid in this effort. These barriers were removed following treatment sprays when the foliage was no longer visibly wet from the treatment and/or control foliar sprays. […]
# [3] = tested on: oyster mushroom; experiment: Fungal plug growth on jasmonate-infused PDA plates; assay type: cell-based; conditions: all concentrations (1 mM, 4.25 mM, 10 mM) in PDA; 72 hours and 10 days
# Method: (§1) MDJ (TCI, CAS No.: 24851-98-7) and CJ were infused into potato dextrose agar (PDA, VWR Cat No.: 90003-494) petri dishes (100×15 mm VWR, Cat No: 25384-094) at concentrations ranging from 1 mM, 4.25 mM, and 10 mM. Each treatment was prepared using a technical grade stock solution of pure chemical (CJ or MDJ) diluted with TWEEN®-20 (VWR, CAS No.: […]). Culturable oyster mushroom and seedling mold served to create fungal mycelial plugs using a sterile 1 mL pipette tip (Eppendorf, Cat No.: 022491458) held upside down. The tips were used to make circle excisions (i.e., fungal plugs) from a mycelial mat grown on PDA with no biochemical infusions. Fungal pugs were then transferred to PDA infused with varying concentrations of CJ or MDJ, and control plates (no CJ or MDJ infusion) to monitor fungal growth at room temperature over time.
# [4] = tested on: seedling mold; experiment: Fungal plug growth on jasmonate-infused PDA plates; assay type: cell-based, Trichoderma ghanense; conditions: all concentrations (1 mM, 4.25 mM, 10 mM) in PDA; 72 hours and 10 days
# Method: as §1
# To compare the efficacy of MDJ and MeJA at inhibiting the same seedling mold as used in the experiment above, a second experiment was conducted using PDA plates infused with either MDJ or MeJA at different concentrations. All plates were generated and inoculated as described above and incubated at room temperature under identical conditions. Shown in FIGS. 9A-9C are plates of seedling mold 72 hours post fungal inoculation. Control plates are shown on the top row, followed by concentrations of MeJA (left) and MDJ (right) in duplicate at 1 mM (FIG. 9A), 4.25 mM (FIG. 9B), and 10 mM (FIG. 9C). […] Subsequent sequence analysis identified the “seedling mold” as Trichoderma ghanense.
structure (smiles),measurement,setting,value
"CC/C=C\CC1=C(C)CCC1=O [CJ, cis-jasmone]",CBDA increase relative to the control group,[1],23.61%
same,THCA increase relative to the control group,[1],27.23%
same,Total CBD increase relative to the control group,[1],23.64%
same,Total Cannabinoids increase relative to the control group,[1],22.92%
same,Total THC increase relative to the control group,[1],27.09%
same,CBGA average relative percent increase compared to the Control group,[2],11.22%
same,THCA average relative percent increase compared to the Control group,[2],1.13%
same,Total Cannabinoids average relative percent increase compared to the Control group,[2],1.17%
same,Total THC average relative percent increase compared to the Control group,[2],1.03%
same,Oyster mushroom fungal growth compared to control,[3],showed inhibition
same,seedling mold growth compared to control,[4],showed inhibition
